In assay [1] the test system is SCC-15. The experiment in a line: Cytotoxicity against human SCC15 cells assessed as reduction in cell viability at 50 uM after 24 hrs by resazurin reduction assay relative to control. Format: functional. In general terms: Alamar Blue is a resazurin reagent that responds to reducing activity.
Assay [2] relates to SCC-15. The experiment in a line: Cytotoxicity against human SCC15 cells transfected with PPARgamma siRNA assessed as reduction in cell viability at 50 uM after 24 hrs by resazurin reduction assay. Format: functional.
The subject of assay [3] is SCC-15. The experiment in a line: Induction of apoptosis in human SCC15 cells assessed as increase in caspase 3 activity at 50 uM after 24 hrs relative to control. The class given is functional.
Assay [4] concerns SCC-15. Kind of assay: Induction of apoptosis in human SCC15 cells transfected with PPARgamma siRNA assessed as increase in caspase 3 activity at 50 uM after 24 hrs relative to control. The class given is functional.
Assay [5] deals with SCC-15. Kind of assay: Downregulation of PPARalpha mRNA expression in human SCC15 cells at 10 uM after 4 hrs by RTqPCR analysis relative to control. Format: functional. A general note: Quantitative PCR measures a nucleic acid by following its amplification.
The test system of assay [6] is SCC-15. Kind of assay: Downregulation of PPARalpha mRNA expression in human SCC15 cells at 50 uM after 4 hrs by RTqPCR analysis relative to control. The class given is functional.
Assay [7] has as its system SCC-15. The experiment in a line: Downregulation of PPARbeta mRNA expression in human SCC15 cells at 10 uM after 4 hrs by RTqPCR analysis relative to control. Format: functional.
Assay [8] relates to SCC-15. Kind of assay: Downregulation of PPARgamma mRNA expression in human SCC15 cells at 10 uM after 4 hrs by RTqPCR analysis relative to control. Format: functional.
Assay [9] concerns SCC-15. The experiment in a line: Downregulation of PPARgamma mRNA expression in human SCC15 cells at 50 uM after 4 hrs by RTqPCR analysis relative to control. Format: functional.
Assay [10] has as its system SCC-15. The experiment in a line: Induction of apoptosis in human SCC15 cells transfected with PPARalpha siRNA assessed as increase in caspase 3 activity at 50 uM after 24 hrs relative to control. Format: functional, cell-based.
Assay [11] deals with SCC-15. The experiment in a line: Cytotoxicity against human SCC15 cells transfected with PPARalpha siRNA assessed as reduction in cell viability at 50 uM after 24 hrs by resazurin reduction assay. The class given is functional, cell-based.
Assay [12] relates to SCC-15. Kind of assay: Cytotoxicity against human SCC15 cells transfected with PPARbeta siRNA assessed as reduction in cell viability at 50 uM after 24 hrs by resazurin reduction assay. The class given is functional, cell-based.
The test system of assay [13] is SCC-15. The experiment in a line: Induction of apoptosis in human SCC15 cells transfected with PPARbeta siRNA assessed as increase in caspase 3 activity at 50 uM after 24 hrs relative to control. The class given is functional.
Assay [14] relates to SCC-15. The experiment in a line: Cytotoxicity against human SCC15 cells assessed as increase in LDH release at 50 uM after 24 hrs by colorimetric assay relative to […]. The class given is functional. A general note: LDH in the medium is a marker of cell lysis.
The subject of assay [15] is SCC-15. The experiment in a line: Cytotoxicity against human SCC15 cells transfected with PPARalpha siRNA assessed as increase in LDH release at 50 uM after 24 hrs by colorimetric assay. The class given is functional, cell-based.
Assay [16] deals with SCC-15. Kind of assay: Cytotoxicity against human SCC15 cells transfected with PPARgamma siRNA assessed as increase in LDH release at 50 uM after 24 hrs by colorimetric assay relative to control. The class given is functional, cell-based.
In assay [17] the test system is SCC-15. Kind of assay: Cytotoxicity against human SCC15 cells transfected with PPARbeta siRNA assessed as increase in LDH release at 50 uM after 24 hrs by colorimetric assay relative to control. Format: functional, cell-based.
For assay [18], the system named is SCC-15. Kind of assay: Downregulation of PPARbeta mRNA expression in human SCC15 cells at 50 uM after 4 hrs by RTqPCR analysis relative to control. The class given is functional.

Activity calls are given as the source filed them. The calls are words filed in the database; no cut-off is given here.

As to `O=C1c2ccccc2C(=O)c2sc3nc(=O)sc-3cc21`, the Activity with SCC-15 [1] is 18.32%; in the assay with SCC-15 [3], 43.55%; in the assay with SCC-15 [5] it was 54.37%; in the assay on SCC-15 [6], 26.99%; in the assay with SCC-15 [7], 16.62%; in the assay with SCC-15 [8], 45.91%. Further, the Activity in the assay on SCC-15 [9] is recorded as 14.34%. The outcome in the assay on SCC-15 [2] and in the assay on SCC-15 [4] was inactive. For the same compound, the outcome in the assay on SCC-15 [10] was Active.

With `CCc1ccc(CCOc2ccc(CC3SC(=O)NC3=O)cc2)nc1` (stereo not given) [PIOGLITAZONE], the result with SCC-15 [1] and in the assay with SCC-15 [3] was inactive. For the same compound, the outcome in the assay with SCC-15 [11] and in the assay on SCC-15 [12] was Active. Moreover, the Activity in the assay on SCC-15 [2] was 31.42%; in the assay on SCC-15 [4] it was 43.03%; with SCC-15 [9] it was 17.33%; in the assay on SCC-15 [13] it was above 27.52%.

Consider `CN(CCOc1ccc(CC2SC(=O)NC2=O)cc1)c1ccccn1` (stereo not given) [ROSIGLITAZONE], for which, in the assay with SCC-15 [1], the outcome was inactive. Also, the outcome in the assay with SCC-15 [11] and in the assay with SCC-15 [12] was Active. In the assay with SCC-15 [8], this compound showed an Activity of 25.54%.

With `O=C(Cn1c2c(sc1=O)[C@@H]1c3ccccc3OC[C@H]1CS2)Nc1ccc(Cl)c(Cl)c1`, the Activity in the assay with SCC-15 [14] was determined as 22.95%; in the assay on SCC-15 [1], 12.08%; in the assay with SCC-15 [5] it was 20.63%; with SCC-15 [7], 31.98%; with SCC-15 [8], 22.96%. Moreover, the outcome in the assay with SCC-15 [15] was Active. Also, the result in the assay on SCC-15 [16] and with SCC-15 [2] was inactive.

Turning to `CN(C)c1ccc(C2CC(c3ccccc3)=NN2C2=NC(=O)/C(=C3/C(=O)Nc4ccccc43)S2)cc1` (stereo not given), the Activity in the assay with SCC-15 [14] is recorded as 44.97%; in the assay on SCC-15 [1] it was 13.53%; in the assay on SCC-15 [3], 177.42%; in the assay on SCC-15 [5], 28.26%; with SCC-15 [6], 18.66%; in the assay with SCC-15 [7], 31.43%. For the same compound, the Activity is 31.92% with SCC-15 [18], 24.79% in the assay with SCC-15 [8] and 15.27% in the assay on SCC-15 [9]. The outcome in the assay with SCC-15 [15] and with SCC-15 [10] was Active. For the same compound, the result with SCC-15 [17], with SCC-15 [16], in the assay on SCC-15 [2] and in the assay with SCC-15 [4] was inactive.
